Results: PubChem BioAssay AID330 (DTP/NCI, 2004)
Several values for one entry are separate records, joined by “and”; a condition that tells them apart may be missing. Equal entries are not always repeated. Inconclusive results and toxic doses are left out.

Tested on: P388 leukemia ip, CD2F1 mice, survival T/C
Assay: NCI In Vivo Anticancer Drug Screen. Data for tumor model P388 Leukemia (intraperitoneal) in CD2F1 (CDF1) mice
Conditions: endpoint: median survival time, higher = longer survival
Protocol: The antitumor activity of compounds was measured in mice bearing transplantable tumors. Survival or tumor size were measured and the results are expressed as the measurement made in the treated group (T) divided by the measurement made in the vehicle treated control group (C). The tumor model used in this assay is P388 Leukemia (intraperitoneal) in CD2F1 (CDF1) mice

[1] = dose: 100.0 mg/kg/injection, schedule: Q01DX001 (ip), vehicle: saline with Tween-80
[2] = dose: 12.5 mg/kg/injection, schedule: Q01DX005 (ip), vehicle: Klucel (hydroxypropylcellulose) (HPC)
[3] = dose: 25.0 mg/kg/injection, schedule: Q01DX005 (ip), vehicle: Klucel (hydroxypropylcellulose) (HPC)
[4] = dose: 50.0 mg/kg/injection, schedule: Q01DX005 (ip), vehicle: Klucel (hydroxypropylcellulose) (HPC)
[5] = dose: 100.0 mg/kg/injection, schedule: Q01DX005 (ip), vehicle: Klucel (hydroxypropylcellulose) (HPC)

With CCn1nnnc1-c1ccccc1 the T/C (dose: 100.0 mg/kg/injection, schedule: Q01DX001 (ip), vehicle: Klucel (hydroxypropylcellulose) (HPC)) was 91 % of control, the T/C (dose: 200.0 mg/kg/injection, schedule: Q01DX001 (ip), vehicle: Klucel (hydroxypropylcellulose) (HPC)) was 88 % of control and the T/C (dose: 400.0 mg/kg/injection, schedule: Q01DX001 (ip), vehicle: Klucel (hydroxypropylcellulose) (HPC)) was 91 % of control.

With COC(=O)CC(=O)C(C(=O)OC)C(CCc1ccccc1)C(C(=O)CC(=O)OC)C(=O)OC (stereo unspecified) the T/C (dose: 25.0 mg/kg/injection, schedule: Q01DX001 (ip), vehicle: saline with Tween-80) was 97 % of control, the T/C (dose: 50.0 mg/kg/injection, schedule: Q01DX001 (ip), vehicle: saline with Tween-80) was 94 % of control and the T/C [1] was 94 % of control.

For N#CS.N=C=S.O=N[O-].[Co+3].[NH2-].[NH2-].[NH2-].[NH2-], the T/C (dose: 25.0 mg/kg/injection, schedule: Q01DX009 (ip), vehicle: saline with Tween-80) was 102 % of control, the T/C (dose: 50.0 mg/kg/injection, schedule: Q01DX009 (ip), vehicle: saline with Tween-80) was 89 % of control and the T/C (dose: 100.0 mg/kg/injection, schedule: Q01DX009 (ip), vehicle: saline with Tween-80) was 108 % of control.

For COC1=C(C)C(=O)c2c(c(/C=N/NC(N)=S)c(Cl)n2C)C1=O, the T/C [1] was 103 % of control, the T/C (dose: 200.0 mg/kg/injection, schedule: Q01DX001 (ip), vehicle: saline with Tween-80) was 93 % of control and the T/C (dose: 400.0 mg/kg/injection, schedule: Q01DX001 (ip), vehicle: saline with Tween-80) was 96 % of control.

For O=C(Nc1ccc(S(=O)(=O)F)cc1)c1ccc2ccccc2c1O, the T/C (dose: 50.0 mg/kg/injection, schedule: Q01DX009 (ip), vehicle: Klucel (hydroxypropylcellulose) (HPC)) was 103 % of control, the T/C (dose: 100.0 mg/kg/injection, schedule: Q01DX009 (ip), vehicle: Klucel (hydroxypropylcellulose) (HPC)) was 94 % of control and the T/C (dose: 200.0 mg/kg/injection, schedule: Q01DX009 (ip), vehicle: Klucel (hydroxypropylcellulose) (HPC)) was 91 % of control.

For COc1cc2c(cc1OC)-c1c(oc3c(CCC(C)C)c(O)ccc3c1=O)CO2, the T/C (dose: 6.25 mg/kg/injection, schedule: Q01DX005 (ip), vehicle: Klucel (hydroxypropylcellulose) (HPC)) was 99 % of control, the T/C [2] was 92 % of control and 94 % of control and the T/C [3] was 88 % of control and 94 % of control. For the same compound, the T/C [4] was 86 % of control and the T/C [5] was 86 % of control.

In the case of CC(C)(C)OC(=O)NCCCCC(NC(=O)OCc1ccccc1)C(=O)ON1C(=O)CCC1=O (stereo unspecified), the T/C (dose: 50.0 mg/kg/injection, schedule: Q01DX005 (ip), vehicle: saline with Tween-80) is reported as 101 % of control, the T/C (dose: 100.0 mg/kg/injection, schedule: Q01DX005 (ip), vehicle: saline with Tween-80) is reported as 102 % of control and the T/C (dose: 200.0 mg/kg/injection, schedule: Q01DX005 (ip), vehicle: saline with Tween-80) is reported as 107 % of control.

With Cn1cc2c(cc1=O)-c1nc3ccccc3c3ccnc(c13)C2=O the T/C (dose: 1.25 mg/kg/injection, schedule: Q01DX005 (ip), vehicle: other) was 96 % of control, the T/C (dose: 2.5 mg/kg/injection, schedule: Q01DX005 (ip), vehicle: other) was 97 % of control and the T/C (dose: 5.0 mg/kg/injection, schedule: Q01DX005 (ip), vehicle: other) was 92 % of control. For the same compound, the T/C (dose: 10.0 mg/kg/injection, schedule: Q01DX005 (ip), vehicle: other) was 90 % of control.

In the case of CCOC(=O)CCC(CC)NC(=O)c1ccc(N)cc1 (stereo unspecified), the T/C (dose: 12.5 mg/kg/injection, schedule: Q01DX009 (ip), vehicle: distilled water + Tween-80) is reported as 93 % of control, the T/C (dose: 25.0 mg/kg/injection, schedule: Q01DX009 (ip), vehicle: distilled water + Tween-80) is reported as 91 % of control and the T/C (dose: 50.0 mg/kg/injection, schedule: Q01DX009 (ip), vehicle: distilled water + Tween-80) is reported as 98 % of control. The T/C (dose: 100.0 mg/kg/injection, schedule: Q01DX009 (ip), vehicle: distilled water + Tween-80) was 102 % of control and the T/C (dose: 200.0 mg/kg/injection, schedule: Q01DX009 (ip), vehicle: distilled water + Tween-80) was 106 % of control.

In the case of Cc1cc(N(CCCl)CCCl)ccc1C=Nc1ccccc1-c1ccccc1, the T/C (dose: 400.0 mg/kg/injection, schedule: Q01DX009 (ip), vehicle: Klucel (hydroxypropylcellulose) (HPC)) is reported as 155 % of control and the T/C (dose: 600.0 mg/kg/injection, schedule: Q01DX009 (ip), vehicle: Klucel (hydroxypropylcellulose) (HPC)) is reported as 170 % of control.

In the case of Cc1nc2ccccc2c(=O)n1/N=C1\C(=O)N(C)c2ccccc21, the T/C [2] is reported as 100 % of control, the T/C [3] is reported as 96 % of control and the T/C [4] is reported as 91 % of control and 96 % of control. For the same compound, the T/C [5] was 105 % of control.

With C=C1C(=O)OC2CC(C)C3C(OC(C)=O)CC(OC(C)=O)C3(C)CC12 (stereo unspecified) the T/C (dose: 12.5 mg/kg/injection, schedule: Q04DX002 (ip), vehicle: saline with Tween-80) was 99 % of control, the T/C (dose: 25.0 mg/kg/injection, schedule: Q04DX002 (ip), vehicle: saline with Tween-80) was 106 % of control and the T/C (dose: 50.0 mg/kg/injection, schedule: Q04DX002 (ip), vehicle: saline with Tween-80) was 103 % of control.
